We go through 11 compounds from US4916121A, “Antitumor composition comprising pyrimidine type nucleic acid derivative and 1-[(2-hydroxyethoxy)methyl]uracil derivative” (Teijin Limited, priority 1985, dated 1990).

Data set [1] concerns the target T1, pyrimidine nucleoside phosphorylase (Rattus norvegicus, UniProt F7F0D5).
T1 construct: small intestine homogenates of an SD-strain male rat and a male beagle; from tissue; host or cells: small intestine homogenate of SD-strain male rat
The data set can be described thus: Inhibition of pyrimidine nucleoside phosphorylase activity in rat small intestine homogenate (decomposition of 5-fluoro-2'-deoxyuridine). Format: biochemical, SD-strain rat. On the procedure:
(§1) Inhibitory effects of 1-[(2-hydroxyethoxy)methyl]-5-methyluracil, 1-[(2-hydroxyethoxy)methyl]-5-fluoro-uracil, 1-[(2-hydroxyethoxy)methyl]-5-bromouracil on pyrimidine nucleoside phosphorylase activity in the small intestine homogenates of an SD-strain male rat and a male beagle were assayed with a lowering in decomposition rate of 5-fluoro-2'-deoxyuridine (concentration: 0.025 mM) and compared with the same effects of thymidine and deoxyuridine.

Data set [2] in a line: Inhibition of pyrimidine nucleoside phosphorylase activity in beagle small intestine homogenate (decomposition of 5-fluoro-2'-deoxyuridine). Particulars: dog, small intestine homogenate, pH 7. In kind it is biochemical. How it is done:
as §1

Data set [3] concerns pyrimidine nucleoside phosphorylase. Described as above. Format: biochemical. Particulars: for Half-life of 5-fluoro-2'-deoxyuridine in presence of inhibitor / Inhibitory percentage: 0.4% w/v beagle small intestine homogenate, pH 7.0, 37° C. On the procedure: as §1
Data set [4] is described as follows: Lipid solubility: retention time in reversed phase HPLC (Lichrosorb RP-18). In kind it is physicochemical. To be noted: RP-18 4.0 × 130 mm, 1.2 ml/min, index of lipid solubility. On the procedure:
The retention time of the compounds of the present invention in reversed phase system high performance liquid chromatograph (Lichrosorb RP-18 column) was measured in two kinds of solvent systems.

The test system of another data set is thymidine phosphorylase. The data set can be described thus: Inhibition of thymidine phosphorylase activity and enzymatic stability in small intestine. Format: biochemical. Particulars: rat and beagle small intestine. How it is done: as §1
The target in data set [5] is T1, pyrimidine nucleoside phosphorylase. The data set can be described thus: Inhibition of pyrimidine nucleoside phosphorylase activity in rat small intestine homogenate (decomposition of 5-fluoro-2'-deoxyuridine). Particulars: inhibitor 0.025 mM; 0.09% w/v rat small intestine homogenate, pH 7.0, 37° C. Format: biochemical, SD-strain rat.
The nature of data set [6]: Inhibition of pyrimidine nucleoside phosphorylase activity in beagle small intestine homogenate (decomposition of 5-fluoro-2'-deoxyuridine). In kind it is biochemical. Particulars: dog; inhibitor 0.025 mM; 0.4% w/v beagle small intestine homogenate, pH 7.0, 37° C.
A short description of data set [7]: Hydrophilic properties: retention time in normal phase HPLC (Nucleosil 5CN). In kind it is physicochemical. To be noted: n-hexane:ethanol = 88:12, 1.2 ml/min, index of hydrophilic properties. How it is done: The retention times of the compounds of the present invention in normal phase system high performance liquid chromatograph (Nucleosil) 5 CN column were measured.

Data set [8] in a line: Enzymatic hydrolyzability in rat duodenum epithelial homogenate. Format: in vitro ADME. Particulars: rat duodenum epithelial homogenate 1% w/v, pH 7.0, 37° C. On the procedure: The hydrolysis rates of the compounds of the present invention were measured at 37° C. in rat duodenum epithelial homogenate (1%, w/v; pH 7.0).
For a further data set, the system named is mouse leukemia L1210. The data set can be described thus: Antitumor effect on mouse leukemia L1210 (increase in life span), oral administration. Format: in vivo. To be noted: days 1, 3, 5. An excerpt: The antitumor effect for mouse leukemia L1210 by a simultaneous oral administration of the compounds of the present invention 3',5'-didodecanoyl-5-fluoro-2'-deoxyuridine and 1-[[2-(octadecanoyloxy)ethoxy]methyl]-5-methyluracil was compared with those of (a) 5-fluoro-2'-deoxyuridine alone, (b) 3',5'-didodecanoyl-5-fluoro-2'-deoxyuridine alone, and (c) a simultaneous oral administration of 3',5'-didodecanoyl-5-fluoro-2'-deoxyuridine and 1-[(2-hydroxyethoxy)methyl]-5-methyluracil.
10^5 ascite tumor cells of mouse leukemia L1210 7 days after transplantation were transplanted intraperioneally into mouse (.male.8 weeks, Ca 25-26 g, 5 mice/group) and provided for experiments. 24 hours after transplantation of the tumor cells, the pharmaceuticals were administered orally three times on day 1, day 3 and day 5.
The antitumor effect of the pharmaceuticals were shown by the increase in life span (ILS) of the group administered with pharamaceuticals relative to the control group (with no pharmaceutical administered) (line extension %).

Data set [9] has as its system established cell line derived from a mouse. To be noted: same molar concentration, in vitro; cited from earlier work.
Data set [10] relates to pyrimidine nucleoside phosphorylase. Particulars: cited from earlier work.
Where [11] appears, read: inhibitor 0.025 mM, 0.09% w/v rat small intestine homogenate, pH 7.0, 37° C.
The mark [12] stands for this setting: inhibitor 0.025 mM, 0.09% w/v rat small intestine homogenate, pH 7.0, 37° C., read-out: Inhibitory percentage.
Setting [13] is: rat, small intestine homogenate, pH 7.
Where [14] appears, read: pH 7, read-out: Inhibitory percentage.

The structures appear in SMILES notation. Where two headings read alike, the source gives them in different places.

T1 sequence (F7F0D5 1-312): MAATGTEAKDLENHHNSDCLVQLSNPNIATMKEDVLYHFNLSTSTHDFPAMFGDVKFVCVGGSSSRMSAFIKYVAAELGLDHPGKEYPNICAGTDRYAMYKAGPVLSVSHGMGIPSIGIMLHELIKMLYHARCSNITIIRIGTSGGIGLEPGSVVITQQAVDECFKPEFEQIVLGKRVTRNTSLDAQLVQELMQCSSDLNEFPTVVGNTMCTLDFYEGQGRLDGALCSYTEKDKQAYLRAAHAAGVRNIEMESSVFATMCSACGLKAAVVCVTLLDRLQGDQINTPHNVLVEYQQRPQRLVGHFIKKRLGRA

As to `O=c1[nH]c(=O)n(COCCO)cc1F` [1-[(2-hydroxyethoxy)methyl]-5-fluorouracil], the “Half-life of 5-fluoro-2'-deoxyuridine in presence of inhibitor” value (from here on “Half-life … of inhibitor”) in data set [1] (setting [11]) is 49.4 min; in data set [3] (inhibitor 0.025 mM), 46.8 min. Further, the inhibition at 25 µM in data set [1] (setting [12]) was determined as 65.6%. The half-life at 25 µM in [1] (setting [13]) and in data set [2] was greater than 1000 min in each case. For the same compound, in data set [3] (inhibitor 0.025 mM), the Inhibitory percentage is 40.6%.

In the case of `CCCCCCCCCCCCCCCC(=O)OCCOCn1cc(C)c(=O)[nH]c1=O` [1-[[2-(Hexadecanoyloxy)-ethoxy]-methyl]-5-methyluracil], in [4], the “Retention time (b) Acetonitrile:acetic acid (999:1)” value worked out at 3.15 min and the “Retention time (a) Acetonitrile:water (19:1)” value was determined as 3.53 min.

For the compound `Cc1cn([C@H]2C[C@H](O)[C@@H](CO)O2)c(=O)[nH]c1=O` [Thymidine, reference compound], the figures for the “Half-life … of inhibitor” value in data set [1] (setting [11]) and in data set [3] (inhibitor 0.025 mM) were 30.6 min and 58.1 min, respectively. Besides, in data set [1] (setting [14]), the inhibition at 25 µM worked out at 44.4%. The Inhibitory percentage in data set [3] (inhibitor 0.025 mM) turned out to be 52.2%. Moreover, the “inhibitory activity against thymidine phosphorylase (in words)” value in the data set with thymidine phosphorylase is “more potenty inhibited by thymidine than by deoxyuridine”. Moreover, the values for the half-life at 25 µM in [5] and in [6] were 88.5 min and 27 min, respectively.

Take `CCCCCCCCCCCCCCCCCCCC(=O)OCCOCn1cc(C)c(=O)[nH]c1=O` [1-[[2-(eicosanoyloxy)-ethoxy]-methyl]-5-methyluracil]: the Retention time in data set [7] was determined as 5.48 min. The Hydrolysis rate constant in [8] is 0.052 min.^-1.

`CCCCCCCCCCCCCC(=O)OC[C@H]1O[C@@H](n2cc(F)c(=O)[nH]c2=O)C[C@@H]1OC(=O)CCCCCCCCCCCCC` [3'5'-ditetradecanoyl-5-fluoro-2'-deoxyuridine] displayed a Retention time in data set [7] of 5.38 min. Further, the Hydrolysis rate constant in [8] amounted to 0.027 min.^-1.

Consider `O=c1[nH]c(=O)n([C@H]2C[C@H](O)[C@@H](CO)O2)cc1F` [5-Fluoro-2'-deoxyuridine, 5-fluoro-2'-deoxyuridine, reference compound], for which the ILS in the data set on mouse leukemia L1210 (10 mg/kg/one dose alone) is recorded as 15%; with mouse leukemia L1210 (30 mg/kg/one dose alone), 10%; in the data set on mouse leukemia L1210 (100 mg/kg/one dose alone), 15%; in the data set on mouse leukemia L1210 (300 mg/kg/one dose alone), 10%. The “Half-life of 5-fluoro-2'-deoxyuridine” value in [1] (rat, small intestine homogenate, 25 µM, pH 7) came to 17.0 min; in data set [3] (dog, small intestine homogenate, 25 µM, pH 7) it was 27.8 min. The “antitumor activity relative to 5-fluorouracil” value in data set [9] is on record as 100 fold. The “half-life in blood (in words)” value in data set [10] (after administration in living bodies) was “shorter half-life in blood”. Also, the “decomposition by pyrimidine nucleoside phosphorylase (in words)” value in [10] (living bodies) is listed as “rapidly decomposed”.

As for `CCCCCCCCCCCCCCCCCC(=O)OCCOCn1cc(C)c(=O)[nH]c1=O` [1-[[2-(octadecanoyloxy)ethoxy]methyl]-5-methyluracil], the ILS in the data set with mouse leukemia L1210 (450 mg/kg/one dose alone) was determined as 12%.

In the data set with mouse leukemia L1210 (200 mg/kg/one dose alone), `Cc1cn(COCCO)c(=O)[nH]c1=O` [1-[(2-hydroxyethoxy)methyl]-5-methyluracil] displayed an ILS of 12%. Moreover, the “Half-life … of inhibitor” value is 100.6 min in [1] (setting [11]) and 85.1 min in data set [3] (inhibitor 0.025 mM). The inhibition at 25 µM in [1] (setting [12]) worked out at 83.1%. The half-life at 25 µM in data set [1] (setting [13]) and in data set [2] was greater than 1000 min each time. The compound further yielded an Inhibitory percentage in [3] (inhibitor 0.025 mM) of 67.3%.

For the compound `CCCCCCCCCCCC(=O)OC[C@H]1O[C@@H](n2cc(F)c(=O)[nH]c2=O)C[C@@H]1OC(=O)CCCCCCCCCCC` [3'5'-didodecanoyl-5-fluoro-2'-deoxyuridine], the “Retention time (b) Acetonitrile:acetic acid (999:1)” value in [4] amounted to 3.00 min. In addition, the “Retention time (a) Acetonitrile:water (19:1)” value in data set [4] was 3.96 min. The increase in lifespan (ILS) with mouse leukemia L1210 (10 mg/kg/one dose alone) is given as 0%; in the data set on mouse leukemia L1210 (30 mg/kg/one dose alone), 5%; in the data set with mouse leukemia L1210 (100 mg/kg/one dose alone) it was 15%; with mouse leukemia L1210 (300 mg/kg/one dose alone), 40%.

`O=c1ccn([C@H]2C[C@H](O)[C@@H](CO)O2)c(=O)[nH]1` [Deoxyuridine, reference compound]: the “Half-life … of inhibitor” value in [1] (setting [11]) came out at 22.2 min; in data set [3] (inhibitor 0.025 mM), 30.5 min. The inhibition at 25 µM in data set [1] (setting [14]) was 23.4%. For the same compound, the half-life at 25 µM was 65.9 min in [1] (setting [13]) and 32.3 min in data set [2]. The Inhibitory percentage in [3] (inhibitor 0.025 mM) amounted to 8.8%.

In the case of `O=c1[nH]c(=O)n(COCCO)cc1Br` [1-[(2-hydroxyethoxy)methyl]-5-bromouracil], the “Half-life … of inhibitor” value worked out at 32.5 min in data set [1] (inhibitor 0.01 mM, 0.09% w/v rat small intestine homogenate, pH 7.0, 37° C.) and 62.5 min in [3] (inhibitor 0.01 mM). Also, in data set [1] (inhibitor 0.01 mM, 0.09% w/v rat small intestine homogenate, pH 7.0, 37° C., read-out: Inhibitory percentage), the inhibition at 10 µM was found to be 47.7%. Besides, the half-life at 10 µM in data set [1] (setting [13]) and in data set [2] was greater than 1000 min each time. In data set [3] (inhibitor 0.01 mM), this compound had an Inhibitory percentage of 55.5%.
